Like-named read-outs stand apart in the source and are kept apart here.
What was measured:
AGS gastric cancer cells = experiment: MTT survival assay, dark or white-light irradiation; assay type: cell-based, human; conditions: for IC50: 8 h incubation, MTT after 48 h; for PI (phototoxicity index): IC50 dark/light ratio
Protocol: To assess the anticancer potential of compounds, the cytotoxicity was evaluated on the gastric cancer cell line AGS. The cells were treated in the dark for 8 h with increasing concentrations of the different compounds (Table 2). Cisplatin was used as a positive cytotoxic and clinically used drug control, and verteporfin (VP) or protoporphyrin-IX (PpIX) were used as positive PDT controls. Cells were then irradiated for 15 min with white light or kept in the dark and further cultivated for 48h in the dark. An MTT test was then performed to evaluate the impact of the different treatments on cell survival. […] The lower cytotoxicity of Ru-2 is most likely due to its low stability in biological media, as determined by stability tests in PBS/DMSO.
The human gastric adenocarcinoma (AGS) cell line was acquired from ATCC (Manassa, VA). AGS cells were cultured in RPMI 1640 medium (Roswell Park Memorial Institute) containing 10% fetal bovine serum (FBS) at 37 °C in a humidified atmosphere of 95% air and 5% CO2.
The antiproliferative activity of cancer cells was determined by the 3-(4,5-dimethylthiazol-2-yl)-2,5-diphenyltetrazolium bromide (MTT) assay. Cells were seeded at 10.000 cells per well (200 μL) in Cellstar 96-well plates (Greiner Bio-One) and further incubated for 24 h. Cells were treated with each compound at different concentrations for 8 h in the dark. After this time, the medium was removed, fresh medium was added, and cells were kept in the dark or irradiated with white light for 15 min. Subsequently, the plates were incubated in the dark for an additional 48 h, and the MTT assay was performed as previously described in the literature.[34] Measurements were performed at 550 nm with the Tristar2Multimode Reader (Berthold Technologies).

[1] = Shake-flask partition coefficient, 1-octanol/PBS; assay type: physicochemical; conditions: average of three independent experiments at 27 °C
From the text: The n-octanol/water partition coefficient (log Po/w) is a well-established parameter that helps to predict the biological activity of drugs and other biologically active compounds.[56] The so-called “shake-flask” method was adopted to determine the partition coefficient using 1-octanol and PBS (phosphate-buffered saline) as solvents.[57] All the porphyrin derivatives presented low lipophilicity values. At the same time, the chlorin compounds were much more lipophilic as expected due to the reduction of one of the pyrrole rings and the formation of the new ring in the chlorin.
The partition coefficient (log Po/PBS) of each compound was determined experimentally by the “shake-flask” method at room temperature following reported methods.[57],[96] A mixture of 1-octanol and PBS in equal amounts was shaken for 24 h, after which the phases were allowed to separate for 24 h. Then, a 1 × 10^–5 M solution of each compound is prepared in 1-octanol/PBS (1:1), and the mixture is left to stir for 24 h. After 24 h of stirring, the mixture is left for 24 h to separate the two phases. Finally, the concentration of each compound in the two phases is determined by UV–vis spectroscopy. logP was determined by the following eq 3.[97] [drawing 3] 3 Where Aap is the absorbance after partition, and Abp is the absorbance before partition.

[2] = Fluorescence quantum yield; assay type: physicochemical; conditions: DMSO, ligands excited at 503 nm, ruthenium complexes at 573 nm, relative to verteporfin
Protocol: Emission spectra were measured in DMSO. The free ligands were excited at 503 nm, while the ruthenium complexes were excited at 573 nm. For the calculation of fluorescence quantum yield, verteporfin (Φf = 0.0085) was used as a reference.[46] In all metal-free compounds, an intense emission band at approximately 630–670 nm and a small band at approximately 700–750 nm were observed, assigned to Q (0–0) and Q (1–0) transitions, respectively.[48] […] A similar behavior has been observed in palladium(II) and nickel(II) metaloporphyrins, where the fluorescence was quenched due to electron or energy transfer.[49]
The fluorescence quantum yields were determined using verteporfin in DMSO as a reference (Φf = 0.0085).[46],[89] The free ligands were excited at 503 nm, and the ruthenium complexes at 573 nm. The quantum yield was calculated following eq 1.[90],[91] [drawing 1] 1 Where ST and X are standard and analyte, respectively, Φf is the fluorescence quantum yield, Grad is the gradient from the area of integration fluorescence intensity vs absorbance, and ηX and ηST are the refractive index of the solvent used to measure the fluorescence spectrum of the analyte and the standard, respectively.

COX2 = experiment: Western blot of COX2 in AGS cells; assay type: cell-based, human; conditions: IC50 concentration 4 h; for COX2 expression in the dark: kept in the dark
Protocol: (§1) Figure 12 Effects of photoactivation of 1, Ru-1, 3B and Ru-3B on protein expression of ferroptosis and inflammation markers in AGS gastric cancer cells. […] (a) Expression of the different markers was determined by Western blot. GAPDH was used as a loading control. Representative Western blot of three independent experiments. ctl = control, untreated cells. Graphs represent the quantification of three independent experiments of GPX4 (b) and COX2 (c) expression, compared to not-treated AGS cells (ctl) and normalized to GAPDH expression. Bars above the colons indicate the comparison of dark versus light for each compound. The dark and light results of each compound were compared to those of the respective untreated control condition (ctl). Statistical analysis: 2-way Anova *<0.05, **<0.01, ***<0.001, ns = not-significant.
COX2 is known for its central role in inflammation and prostaglandins (PGs) production. In normal cells, COX2 expression is almost absent, whereas in cancer cells, it is frequently overexpressed.[84] Importantly, it has been shown that in cancers, COX2 is not only a mediator of inflammation but could also be a mediator of oxidative stress and inhibition of apoptosis, as well as cancer cell proliferation.[85]
Cells were then lysed in lysis buffer (50 mM Tris–HCl pH 6.7, NaCl 150 mM, NP40 1%). Total protein concentration was determined using Bradford assay and adjusted to the same quantity (50 μg) for each experiment. A total of 30 μg of proteins were resolved by 6–15% SDS-PAGE (depending on protein molecular weight) and transferred to nitrocellulose blotting membranes according to standard methods. Membranes were blocked with blocking buffer (containing 5% milk powder or 1% BSA) for 1 h at room temperature, then washed three times with TBST or PBST (containing 0.1% Tween-20) and incubated with primary antibodies at 4 °C overnight. The following day, the membranes were washed thrice with […]. […] Protein bands were quantified using ImageJ software.[99] […]

LC3B = experiment: Western blot of LC3B-I/II in AGS cells; assay type: cell-based, human; conditions: IC50 concentration 4 h, white light 15 min, 24 h in the dark
From the text: (§2) The therapeutic effects of PDT treatment on cancer cells are thought to be mainly related to ROS production, which are highly reactive and cytotoxic species that can induce cell death by apoptosis.[62] It has also been shown that ruthenium compounds can induce different cell death pathways.[63],[64] For these reasons, we initially analyzed by Western blot the expression of cleaved caspase 3 and PARP, which are two well-known markers for programmed cell death apoptosis.[65]−[70] […] The cells were then further cultivated in the dark for 24 h. […] Then, the protein expression of CHOP, a key component of the endoplasmic reticulum (ER) stress-mediated apoptosis pathway and known to be induced by ruthenium compounds, was evaluated.[71],[72] […] To investigate this, the expression and conversion of LC3B–I to LC3B–II was analyzed by Western blot (Figure 11).
(§3) Figure 11 Effects of photoactivation of 1, Ru-1, 3B, and Ru-3B on protein expression on different cell death markers in AGS gastric cancer cells. […] Protein extraction was performed, and expression of the different markers was determined by Western blot. […]
(§4) Cells were then lysed in lysis buffer (50 mM Tris–HCl pH 6.7, NaCl 150 mM, NP40 1%). Total protein concentration was determined using Bradford assay and adjusted to the same quantity (50 μg) for each experiment. […] Protein bands were quantified using ImageJ software.[99] […]

GPX4 = experiment: Western blot of GPX4 in AGS cells; assay type: cell-based, human; conditions: IC50 concentration 4 h, white light 15 min, 24 h in the dark
Protocol: Ferroptosis, another form of nonapoptotic cell death, can promote inflammation and is triggered by iron-catalyzed lipid peroxidation via Fenton-type reactions, where the main ROS responsible for lipid damage are hydroxyl radical and superoxide radical.[81],[82] Glutathione peroxidase (GPX4) can suppress lipid peroxidation and protect cells from ferroptosis.[83] To investigate the impact of the different compounds on GPX4 expression, AGS cells were treated as described above, and then GPX4 expression was analyzed by Western blot (Figure 12a).
as §1, with “Bars above the colons indicate the comparison of dark versus light for each compound. The dark and light results of each compound were compared to those of the respective untreated control condition (ctl). Statistical analysis: 2-way Anova *<0.05, **<0.01, ***<0.001, ns = not-significant.” left out
as §4

[3] = system: cleaved caspase 3 and PARP; experiment: Western blot of apoptosis markers in AGS cells; assay type: cell-based, human; conditions: IC50 concentration 4 h, white light 15 min, 24 h in the dark
From the text: as §2, §3, §4

[4] = Homo sapiens, AGS, kept in dark, N = 3, read-out: IC50 dark
[5] = Homo sapiens, AGS, white light 15 min, N = 3, read-out: IC50 light

| SMILES | IC50 (AGS gastric cancer cells; [4]) [µM] | IC50 (AGS gastric cancer cells; [5]) [µM] | log PO/PBS [1] | Φf luminescence quantum yield [2] [%] | COX2 expression in the dark (COX2) | IC50 (AGS gastric cancer cells; white light 15 min, N = 3, read-out: IC50 light) [µM] | LC3B-I/II expression (LC3B) | PI (phototoxicity index) (AGS gastric cancer cells) | GPX4 expression (GPX4) | IC50 (AGS gastric cancer cells; kept in dark, N = 3, read-out: IC50 dark) [µM] | cleavage of caspase 3 and PARP [3] | COX2 expression upon light irradiation (COX2; white light 15 min, 24 h in the dark, vs untreated) |
| --- | --- | --- | --- | --- | --- | --- | --- | --- | --- | --- | --- | --- |
| C=Cc1c(C)c2cc3nc(cc4[nH]c(cc5nc(cc1[nH]2)C(C)=C5CCC(=O)OC)c(CCC(=O)OC)c4C)C1(C)C3=CCC(C(=O)OC)=C1C(=O)OC (stereo not drawn) [3A] | > 100 | 0.1 ± 0.06 | 1.478 ± 0.083 | 1.2 |  |  |  |  |  |  |  |  |
| C=Cc1c(C)c2cc3nc(cc4[nH]c(cc5nc(cc1[nH]2)C1(C)C5=CCC(C(=O)OC)=C1C(=O)OC)c(C)c4CCC(=O)OC)C(CCC(=O)OC)=C3C (stereo not drawn) [3B] | > 100 | 0.18 | 1.661 ± 0.088 | 1.2 | reduction in COX2 expression in the dark | 0.2 ± 0.021 | marked induction of LC3B–I/II expression |  |  |  |  |  |
| C=Cc1c(C)c2cc3nc(cc4[nH]c(cc5nc(cc1[nH]2)C(C)=C5CCC(=O)OCc1ccccc1)c(CCC(=O)OCc1ccccc1)c4C)C1(C)C3=CCC(C(=O)OC)=C1C(=O)OC (stereo not drawn) [4A] | > 100 | 2.5 ± 0.231 | 1.368 ± 0.042 | 1.0 |  |  |  | >40 |  |  |  |  |
| C=Cc1c(C)c2cc3nc(cc4[nH]c(cc5nc(cc1[nH]2)C1(C)C5=CCC(C(=O)OC)=C1C(=O)OC)c(C)c4CCC(=O)OCc1ccccc1)C(CCC(=O)OCc1ccccc1)=C3C (stereo not drawn) [4B] | > 100 | 2.8 ± 0.265 | 1.682 ± 0.176 | 1.0 |  |  |  | >36 |  |  |  |  |
| C=CC1=C(C)c2cc3[nH]c(cc4nc(cc5[nH]c(cc1n2)c(C)c5CCC(=O)O)C(CCC(=O)O)=C4C)c(C)c3C=C [PpIX, protoporphyrin IX] | > 100 | 0.5 |  |  | reduction in COX2 expression in the dark |  |  | >200 | decrease in GPX4 expression |  |  |  |
| N.N.[Cl][Pt][Cl] [cisplatin, reference compound] |  |  |  |  |  |  |  |  |  | 29 |  |  |
| C=CC1=C(C)c2cc3[nH]c(cc4nc(cc5[nH]c(cc1n2)c(C)c5CCC(=O)OC)C(CCC(=O)OC)=C4C)c(C)c3C=C [compound 1] | > 100 | 1.7 ± 0.184 | 0.957 ± 0.056 | 0.80 |  |  |  | > 17 |  |  | as efficient as VP | significantly reduce COX2 expression |
| C=CC1=C(C)c2cc3[nH]c(cc4nc(cc5[nH]c(cc1n2)c(C)c5CCC(=O)OCc1ccccc1)C(CCC(=O)OCc1ccccc1)=C4C)c(C)c3C=C [compound 2] | > 100 | 2.6 ± 0.1 | 1.063 ± 0.142 | 0.80 |  |  |  | > 18 |  |  |  |  |
